ChEMBL document CHEMBL1201862, “PubChem BioAssay data set” (2004)
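Tested at 5 concentrations; 48 h exposure; 96-well plates; endpoints linearly interpolated, else capped at highest concentration. Here, GI50 denotes the concentration required for 50% inhibition of growth.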 Active and inactive are the calls of the source. Rule as the data show it: active = GI50 up to about 1.1 µM and inactive = higher.

How the values were obtained:
Assay in all cases: NCI tumour cell line growth inhibition, 48 h
A498 = tested on: A498
BT-549 = tested on: BT-549
Hs-578T = tested on: Hs-578T
MDA-MB-435 = tested on: MDA-MB-435
MDA-N = tested on: MDA-N
NCI-H226 = tested on: NCI-H226
NCI/ADR-RES = tested on: NCI/ADR-RES
RPMI-8226 = tested on: RPMI-8226
SN12C = tested on: SN12C
T47D = tested on: T47D
TK-10 = tested on: TK-10
U-251 = tested on: U-251
UACC-62 = tested on: UACC-62
A549 = tested on: A549
DLD-1 = tested on: DLD-1
KM-20L2 = tested on: KM-20L2
LXFL 529 = tested on: LXFL 529
M19-MEL = tested on: M19-MEL
SF-268 = tested on: SF-268
XF498 = tested on: XF498

Row | SMILES | GI50 (A498) | GI50 (BT-549) | GI50 (Hs-578T) | GI50 (MDA-MB-435) | GI50 (MDA-N) | GI50 (NCI-H226) | GI50 (NCI/ADR-RES) | GI50 (RPMI-8226) | GI50 (SN12C) | GI50 (T47D) | GI50 (TK-10) | GI50 (U-251) | GI50 (UACC-62) | GI50 (A549) | GI50 (DLD-1) | GI50 (KM-20L2) | GI50 (LXFL 529) | GI50 (M19-MEL) | GI50 (SF-268) | GI50 (XF498)
1 | O=c1ccn(COC(COCc2ccccc2)COCc2ccccc2)c(=O)[nH]1 | > 100 µM (inactive) | > 100 µM (inactive) | > 100 µM (inactive) | > 100 µM (inactive) | > 100 µM (inactive) | > 100 µM (inactive) | > 100 µM (inactive) | > 100 µM (inactive) | > 100 µM (inactive) | 64.1 µM (inactive) | > 100 µM (inactive) | > 100 µM (inactive) | 86.9 µM (inactive) | – | – | – | – | – | – | –
2 | O=C(O)C1CCCCN1c1ccccc1[N+](=O)[O-] (stereo not given) | – | – | – | – | – | > 100 µM (inactive) | – | > 100 µM (inactive) | > 100 µM (inactive) | – | > 100 µM (inactive) | > 100 µM (inactive) | > 100 µM (inactive) | > 100 µM (inactive) | > 100 µM (inactive) | > 100 µM (inactive) | > 100 µM (inactive) | > 100 µM (inactive) | > 100 µM (inactive) | > 100 µM (inactive)
3 | C[C@H]1C(=O)O[C@@H]1[C@H]1COC(C)(C)O1 | > 100 µM (inactive) | > 100 µM (inactive) | – | > 100 µM (inactive) | > 100 µM (inactive) | > 100 µM (inactive) | > 100 µM (inactive) | > 100 µM (inactive) | > 100 µM (inactive) | – | > 100 µM (inactive) | > 100 µM (inactive) | > 100 µM (inactive) | > 100 µM (inactive) | – | – | – | – | > 100 µM (inactive) | –
4 | CCOc1ccc(/C(C=O)=C(\Cl)c2ccc(OC)c(OC)c2)cc1 | > 100 µM (inactive) | – | – | – | – | > 100 µM (inactive) | – | > 100 µM (inactive) | > 100 µM (inactive) | – | > 100 µM (inactive) | > 100 µM (inactive) | 68.9 µM (inactive) | – | > 100 µM (inactive) | > 100 µM (inactive) | > 100 µM (inactive) | > 100 µM (inactive) | 42.6 µM (inactive) | 45.2 µM (inactive)
5 | O=C(/C=N/c1ccccc1S)c1ccco1 | – | – | – | – | – | – | – | 14.8 µM (inactive) | 8.09 µM (inactive) | – | 19.1 µM (inactive) | 5.53 µM (inactive) | 15.5 µM (inactive) | 5.11 µM (inactive) | 6.56 µM (inactive) | 14.5 µM (inactive) | – | 12.2 µM (inactive) | 18.7 µM (inactive) | –
6 | COc1cc(/C=C/C(=O)Oc2ccc(NC(C)=O)cc2)ccc1C(=O)O/C=C/c1ccccc1 | > 100 µM (inactive) | – | – | – | – | > 100 µM (inactive) | > 100 µM (inactive) | > 100 µM (inactive) | > 100 µM (inactive) | – | – | > 100 µM (inactive) | > 100 µM (inactive) | > 100 µM (inactive) | > 100 µM (inactive) | > 100 µM (inactive) | – | > 100 µM (inactive) | > 100 µM (inactive) | > 100 µM (inactive)
7 | CCOC(=O)NC(Nc1ncccn1)(C(=O)OCC)C(F)(F)F (stereo not given) | – | > 100 µM (inactive) | > 100 µM (inactive) | > 100 µM (inactive) | > 100 µM (inactive) | – | > 100 µM (inactive) | > 100 µM (inactive) | > 100 µM (inactive) | 56 µM (inactive) | > 100 µM (inactive) | > 100 µM (inactive) | 63.4 µM (inactive) | > 100 µM (inactive) | – | – | – | – | > 100 µM (inactive) | –
8 | CC(C)(C)OC(=O)NCC(=O)NC1C/C(=N\O)c2sccc21 (stereo not given) | > 100 µM (inactive) | > 100 µM (inactive) | > 100 µM (inactive) | > 100 µM (inactive) | > 100 µM (inactive) | > 100 µM (inactive) | > 100 µM (inactive) | – | > 100 µM (inactive) | > 100 µM (inactive) | > 100 µM (inactive) | > 100 µM (inactive) | > 100 µM (inactive) | > 100 µM (inactive) | – | – | – | – | > 100 µM (inactive) | –
9 | C=C(CC)C[C@@H]1C[C@]2(C(=O)OC)c3[nH]c4ccccc4c3CCN2C1=O | 17.6 µM (inactive) | 22 µM (inactive) | 14.2 µM (inactive) | 19.3 µM (inactive) | 17.4 µM (inactive) | – | 19.5 µM (inactive) | – | 20 µM (inactive) | 26.2 µM (inactive) | 35.3 µM (inactive) | 21.1 µM (inactive) | 16.9 µM (inactive) | 14.7 µM (inactive) | – | – | – | – | 21.6 µM (inactive) | –
10 | O=c1[nH]c(-c2ccc(Cl)cc2)cc2ccsc12 | – | 4.82 µM (inactive) | – | 0.453 µM (active) | 1.58 µM (inactive) | > 100 µM (inactive) | 3.56 µM (inactive) | 3.1 µM (inactive) | 5.5 µM (inactive) | 2.37 µM (inactive) | 2.82 µM (inactive) | 3.14 µM (inactive) | 8.22 µM (inactive) | 3.5 µM (inactive) | – | – | – | – | 9.23 µM (inactive) | –
11 | COc1ccc(C[C@H](N)C(=O)N2C[C@H](CO)C[C@H](n3ccc(=O)[nH]c3=O)C2)cc1 | – | – | – | – | – | > 100 µM (inactive) | – | > 100 µM (inactive) | > 100 µM (inactive) | – | > 100 µM (inactive) | > 100 µM (inactive) | > 100 µM (inactive) | > 100 µM (inactive) | > 100 µM (inactive) | > 100 µM (inactive) | > 100 µM (inactive) | > 100 µM (inactive) | > 100 µM (inactive) | –
12 | COC(=O)C1C(C)N1C (stereo not given) | – | – | – | – | – | > 100 µM (inactive) | – | > 100 µM (inactive) | > 100 µM (inactive) | – | > 100 µM (inactive) | > 100 µM (inactive) | > 100 µM (inactive) | > 100 µM (inactive) | > 100 µM (inactive) | – | > 100 µM (inactive) | > 100 µM (inactive) | – | 64.3 µM (inactive)
13 | CCOC(=O)NC(Nc1ccc(Cl)cn1)(C(F)(F)F)C(F)(F)F | > 100 µM (inactive) | > 100 µM (inactive) | > 100 µM (inactive) | > 100 µM (inactive) | > 100 µM (inactive) | > 100 µM (inactive) | – | > 100 µM (inactive) | – | > 100 µM (inactive) | > 100 µM (inactive) | > 100 µM (inactive) | > 100 µM (inactive) | – | – | – | – | – | > 100 µM (inactive) | –
14 | O=C1Sc2sc(=S)sc2SC1c1ccccc1 (stereo not given) | > 100 µM (inactive) | – | – | – | – | > 81.8 µM (inactive) | 40.5 µM (inactive) | 46.9 µM (inactive) | > 89.7 µM (inactive) | – | – | 52.5 µM (inactive) | 26.8 µM (inactive) | > 100 µM (inactive) | 32.2 µM (inactive) | > 63.5 µM (inactive) | – | 60.4 µM (inactive) | 46.6 µM (inactive) | 45.2 µM (inactive)
15 | O=C1c2ccccc2C(=O)N1CC(O)COc1cccc2ccccc12 (stereo not given) | 73.5 µM (inactive) | – | – | > 100 µM (inactive) | > 100 µM (inactive) | – | > 100 µM (inactive) | > 100 µM (inactive) | – | > 10 µM (inactive) | > 100 µM (inactive) | > 100 µM (inactive) | > 100 µM (inactive) | > 100 µM (inactive) | – | – | – | – | 85.3 µM (inactive) | –
16 | Clc1ccc(C[P+](c2ccccc2)(c2ccccc2)c2ccccc2)c(Cl)c1 | 4.61 µM (inactive) | – | – | – | – | 2.34 µM (inactive) | – | 0.463 µM (active) | 2.7 µM (inactive) | – | 6.52 µM (inactive) | 2.49 µM (inactive) | 2.4 µM (inactive) | 4.47 µM (inactive) | – | 2.61 µM (inactive) | 1.67 µM (inactive) | 1.88 µM (inactive) | 3.94 µM (inactive) | 1.61 µM (inactive)
17 | NC(=O)/C(=N\NC(=O)c1cc2ccccc2cc1O)C1C(=O)N(c2ccccc2)N=C1N (stereo not given) | 1.23 µM (inactive) | – | – | – | – | 24.2 µM (inactive) | – | 13.8 µM (inactive) | 40.5 µM (inactive) | – | > 100 µM (inactive) | 30.3 µM (inactive) | 15.2 µM (inactive) | 30.6 µM (inactive) | 34 µM (inactive) | 32.9 µM (inactive) | 59.3 µM (inactive) | 30.6 µM (inactive) | 17.2 µM (inactive) | 37.6 µM (inactive)
18 | Nc1cc(N2CCOCC2)nc(=O)n1-c1ccccc1 | > 100 µM (inactive) | > 100 µM (inactive) | – | > 100 µM (inactive) | > 100 µM (inactive) | > 100 µM (inactive) | > 100 µM (inactive) | > 100 µM (inactive) | > 100 µM (inactive) | > 100 µM (inactive) | – | > 100 µM (inactive) | > 100 µM (inactive) | > 100 µM (inactive) | – | – | – | – | – | –
19 | CCC(C)C1NC(=O)C2CCCN2C(=O)C(CC2CO2)OC(=O)CCNC(=O)C(C)N(C)C(=O)C(C(C)C)N(C)C1=O (stereo not given) | > 100 µM (inactive) | < 0.0414 µM (active) | > 100 µM (inactive) | 0.111 µM (active) | 0.181 µM (active) | > 5.08 µM (inactive) | > 47.8 µM (inactive) | 0.968 µM (active) | > 100 µM (inactive) | 6.05 µM (inactive) | > 14 µM (inactive) | 2.75 µM (inactive) | 0.0209 µM (active) | 0.197 µM (active) | – | – | – | – | – | –
20 | CC(=O)OC1CCC2(C)C(CCC3C2CCC2(C)C(c4ccc(=O)oc4)C(OC(C)=O)CC32O)C1 (stereo not given) | 0.0156 µM (active) | – | – | – | – | 0.0356 µM (active) | 0.0191 µM (active) | 0.0148 µM (active) | 0.0162 µM (active) | – | – | 0.0184 µM (active) | 0.0169 µM (active) | 0.0135 µM (active) | 0.0155 µM (active) | 0.0188 µM (active) | – | – | 0.0144 µM (active) | 0.0244 µM (active)
21 | OC[C@H]1O[C@@H](n2cnc3cncnc32)[C@H](O)[C@@H]1O [NEBULARINE] | 1.52 µM (inactive) | – | – | – | – | 1.34 µM (inactive) | 0.69 µM (active) | 0.714 µM (active) | 1.4 µM (inactive) | – | – | 1.63 µM (inactive) | 1.16 µM (inactive) | 0.904 µM (active) | 0.536 µM (active) | 1.04 µM (active) | – | 3.27 µM (inactive) | 1.09 µM (active) | < 0.01 µM (active)
